Laboratory results taken from patent US8492391B2, “Substituted 6-(2-hydroxybenzylamino)purine derivatives, their use as medicaments and compositions containing these derivatives” (Univerzita Palackeho V Olomouci, priority 2009, dated 2013).
Entries after “also recorded” stand apart in the source; their conditions may differ.

What was measured:
[1] = test system: p53; assay: p53-dependent transcription, β-galactosidase reporter in Arn8 cells; type: cell-based, human; parameters: key to p53 (effect): induction of p53 protein: ++: very strong; +: weak; −: no effect
Source text: Protein p53, accumulated in nuclei upon treatment by the compounds, then leads to trans-activation of natural cell cycle inhibitor p21^WAF1, further blocking the cell cycle. […] This allows qualitative as well as quantitative measurement of CDK inhibitors-induced p53 transcriptional activity via β-galactosidase assay. Then, the effect will be verified in treated cells by immunoblotting of proteins expressed under the control of p53. β-galactosidase activity of human melanoma cell line Arn8 was determined as described. […] Alternatively, β-galactosidase activity was quantified by measuring fluorescence of methylumbelliferyl-β-D-galactopyranoside cleavage product. Cell lines established from the human breast carcinoma (MCF-7) and the human melanoma (Arn8) cell lines were cultured in Dubecco's Modified Eagle Medium (DMEM) supplemented with 10% foetal bovine serum.
Effects of prepared compounds on activation of p53 protein were analysed in human melanoma cell line Arn8. […] The total β-galactosidase activity in Arn8 cells was quantified using a fluorimetric assay.

[2] = test system: C-terminal domain of RNA polymerase II (serine 2 and serine 5 phosphorylation); assay: Immunoblotting of RNA polymerase II CTD phosphorylation (CDK9 activity in cells), MCF-7; type: cell-based, human; conditions: MCF-7 cells
Description: Effect of compounds on CDK9 activity in cells was monitored by site-specific phosphorylations of C-terminal domain of RNA polymerase II, a substrate of CDK9, by means of immunoblotting. For immunoblotting, cell were detached with rubber policeman and washed three times with ice-cold PBS and lysed in buffer (50 mM Tris, pH 7.4, 250 mM NaCl, 5 mM EDTA, 50 mM NaF, 1 mM Na3VO4, 1% Nonidet P40) containing mixture of protease and phosphatase inhibitors (Sigma-Aldrich, USA). 20 μg of total proteins were separated by SDS-polyacrylamide gel electrophoresis (SDS-PAGE) and transferred onto nitrocellulose membranes. Membranes were blocked in 5% milk and 0.1% Tween 20 in PBS and probed overnight with specific monoclonal antibodies or rabbit polyclonal sera. Primary antibodies specific for RNA polymerase II (all from Santa Cruz Biotechnology, California, USA) included: (i) N-20 used at 1 μg/ml, (ii) H14, specific for form phosphorylated at phosphoserine 5, used at 6 μg/ml and (iii) H5, specific for form phosphorylated at phosphoserine 2 used at 4 μg/ml. […] All primary antibodies were diluted in PBS containing 5% powdered milk; 0.1% Tween 20. Peroxidase conjugated rabbit anti-mouse immunoglobulin or porcine anti-rabbit immunoglobulin antisera (DAKO, Denmark) were used as the secondary antibodies and visualised with ECL reagents (Amersham-Pharmacia, Little Chalfont, UK). […]

[3] = test system: p53 in RPMI-8226 cells; assay: Immunoblotting in RPMI-8226 cells with temperature-sensitive p53 (E285K) at permissive and restrictive temperature; type: cell-based, human; conditions: RPMI-8226 cells, 30° C. versus restrictive temperature
Description: For immunoblotting, cell were detached with rubber policeman and washed three times with ice-cold PBS and lysed in buffer (50 mM Tris, pH 7.4, 250 mM NaCl, 5 mM EDTA, 50 mM NaF, 1 mM Na3VO4, 1% Nonidet P40) containing mixture of protease and phosphatase inhibitors (Sigma-Aldrich, USA). 20 μg of total proteins were separated by SDS-polyacrylamide gel electrophoresis (SDS-PAGE) and transferred onto nitrocellulose membranes. Membranes were blocked in 5% milk and 0.1% Tween 20 in PBS and probed overnight with specific monoclonal antibodies or rabbit polyclonal sera. […] All primary antibodies were diluted in PBS containing 5% powdered milk; 0.1% Tween 20. Peroxidase conjugated rabbit anti-mouse immunoglobulin or porcine anti-rabbit immunoglobulin antisera (DAKO, Denmark) were used as the secondary antibodies and visualised with ECL reagents (Amersham-Pharmacia, Little Chalfont, UK).
Then, we also determined effect of the compounds on the cell lines expressing some temperature-sensitive mutants of p53. For example, in BT474 and RPMI-8226 cells bearing temperature-sensitive mutant of p53 (E285K), p53 protein switches between mutant and wild-type conformation in a temperature-dependent manner. At restrictive (37° C.) temperature mutated p53 protein is expressed, while after shift to a permissive (30° C.) temperature p53 is folded correctly and functional. To analyze the functional involvement of p53 in the efficiency of the treatment with the compounds, we cultivated RPMI-8226 cells independently at two different temperatures (restrictive or permissive), and exposed them to increasing doses of selected compounds. The cell lysates were prepared and the levels of cell cycle regulators were analysed by immunoblotting.

[4] = test system: p53, p21^WAF1, Mcl-1 in MCF-7 cells; assay: Immunoblotting of p53, p21WAF1 and Mcl-1 in MCF-7 cells; type: cell-based, human; conditions: MCF7, 24 h, concentration dependent, immunoblotting
Description: For immunoblotting, cell were detached with rubber policeman and washed three times with ice-cold PBS and lysed in buffer (50 mM Tris, pH 7.4, 250 mM NaCl, 5 mM EDTA, 50 mM NaF, 1 mM Na3VO4, 1% Nonidet P40) containing mixture of protease and phosphatase inhibitors (Sigma-Aldrich, USA). 20 μg of total proteins were separated by SDS-polyacrylamide gel electrophoresis (SDS-PAGE) and transferred onto nitrocellulose membranes. Membranes were blocked in 5% milk and 0.1% Tween 20 in PBS and probed overnight with specific monoclonal antibodies or rabbit polyclonal sera. Primary antibodies specific for p53 (DO-1, in house), p21^WAF1 (118, in house), PARP-1 (2C10, Sigma-Aldrich St Louis, Mo., USA), Mcl-1 (S-19, Santa Cruz, USA), all used at 1 μg/ml. All primary antibodies were diluted in PBS containing 5% powdered milk; 0.1% Tween 20. Peroxidase conjugated rabbit anti-mouse immunoglobulin or porcine anti-rabbit immunoglobulin antisera (DAKO, Denmark) were used as the secondary antibodies and visualised with ECL reagents (Amersham-Pharmacia, Little Chalfont, UK).
The induction of p53 protein was apparent in 4 hrs but enhanced level of p21^WAF1 protein was observed only 12 hours after treatment with compound 128 (FIG. 5). The periods of time 12 and 24 hrs were chosen, since the level of protein expression reached a steady state.

[5] = test system: β-adrenergic receptors; assay: Modulation of the activity of β-adrenergic receptors (isoproterenol-induced cAMP synthesis in C6 glioma); type: cell-based; conditions: rat C6 glioma, cAMP synthesis induced by 5 μM (−) isoproterenol, 30 min, simultaneous addition
Description: Mechanism of action of novel compounds is presented on FIG. 2. […] Incubation was at 37° C. in a humidified atmosphere. Assays were performed in the logaritmic growth phase at a density of 2.5×10^5 cells/cm^2. Intracellular cAMP synthesis was induced by addition of 5 μM (−) isoproterenol. After 30 min incubation at 37° C. the medium was removed and the cellular amount of cAMP determined using the cAMP-enzyme immunoassay kit of Amersham. The I50 is determined from a dose-response curve in duplicate. The effect of several novel substituted 6-(2-hydroxybenzylamino)purine derivatives was measured after simultaneous addition with isoproterenol.
As P2Y1-like and A2 purinergic receptors, negatively and positively coupled to adenylate cyclase respectively, are present on rat C6 glioma. It has to be determined if the modulation of the synthesis of cAMP is due to inhibition of the activation of β-adrenergic receptors by isoproterenol are due to activation of purinergic receptors.

## CC[C@H](CO)Nc1nc(NCc2ccccc2)c2ncn(C(C)C)c2n1 [ROSC, roscovitine, reference compound]
[1]; Arn8 cells stable transfected with a β-galactosidase reporter gene
  p53 (effect): induction of p53 protein: ++
[1]; Arn8 reporter cell line, β-galactosidase reporter activity
  activation of p53-dependent transcription: proved to activate p53-dependent transcription
[2]
  levels of serine 2 and serine 5 phosphorylation of RNA polymerase II CTD: substantially reduced; also recorded: is inhibited
[3]
  expression of anti-apoptotic protein Mcl-1: suppressed more efficiently at 30 °C
[4]
  expression of p53, p21^Waf1 and Mcl-1: accumulation of tumor suppressor protein p53, expression of p53-regulated CDK inhibitor p21^Waf1 and downregulation of antiapoptotic protein Mcl-1
[5]
  EFFECT (modulation of the activity of β-adrenergic receptors): inactive
